From patent US20260365688A1, “STRAINED BICYCLONONENES” (TAGWORKS PHARMACEUTICALS B.V., priority 2022, published 2026)

Tests used:
Format in all cases: physicochemical
[1] = Second-order rate constant of IEDDA reaction of TCO with tetrazine 2.1 in MeCN by UV-Vis; conditions: activator 2.1; in MeCN at 20 °C; second-order conditions
Experimental: (§1) The second-order rate constant of the IEDDA reaction of 3,6-dimethyl-1,2,4,5-tetrazine (2.1) or 3,6-di(pyridin-2-yl)-1,2,4,5-tetrazine (2.2) and a compound of the disclosure in MeCN at 20 °C was determined by UV-Vis spectrometry under second-order reaction conditions (n=1). A cuvette was filled with a solution of 3,6-dimethyl-1,2,4,5-tetrazine or 3,6-di(pyridin-2-yl)-1,2,4,5-tetrazine (3 mL 0.083 mM in MeCN), and equilibrated at 20 °C. Next, a solution of the compound of the disclosure (10.0 μL 25 mM in acetonitrile, 2.50×10^−7 mol) was added, and the solution was quickly homogenized and inserted in the UV spectrometer. The absorption at λ=540 nm (specific for the tetrazine moiety) was measured every second in a time course experiment. From the decay of this absorption, the conversion was calculated. The second-order rate constant k2 was determined from the slope of the curve of a plot of 1/c −1/c0 versus time.

[2] = Second-order rate constant of IEDDA reaction of TCO with tetrazine 2.2 in MeCN by UV-Vis; conditions: activator 2.2; in MeCN at 20 °C; second-order conditions
Experimental: as §1

[3] = Releasing activity of s-TCO derivatives on reaction with 3,6-dimethyl-1,2,4,5-tetrazine (HPLC-MS PDA); conditions: acetonitrile/PBS; for formation of the (pyridazine) elimination product: after 30 min
Experimental: To a stock solution of 1.7 (10 uL 17.8 mM in DMSO, 1.78×10^−7 mol) was added acetonitrile (0.2 mL), PBS (0.8 mL), and a stock solution of 3,6-dimethyl-1,2,4,5-tetrazine (7.1 uL 25 mM in DMSO, 1.78×10^−7 mol). […] ESI-MS: m/z Calc. for C18H21N3O4 343.15 Da; Obs. [M+H]^+ 344.25 Da, max=243 nm.
To a solution of 1.21 (3.75×10^−7 mol) in acetonitrile (0.2 mL) was added PBS (0.8 mL), and a stock solution of 3,6-dimethyl-1,2,4,5-tetrazine (20 uL 25 mM in DMSO, 5.0×10^−7 mol). […] ESI-MS: m/z Calc. for C18H21N3O4 343.15 Da; Obs. [M+H]^+ 344.25 Da, λmax=250 nm.
To a solution of 1.22 (3.75×10-8 mol) in acetonitrile (0.02 mL) was added PBS (0.08 mL), and a stock solution of 3,6-dimethyl-1,2,4,5-tetrazine (2 uL 25 mM in DMSO, 5.0×10-8 mol).

Structure (SMILES) | Rate constants k2 [1] | Rate constants k2 [2] | disappearance of the pink color (tetrazine consumption) [3] | formation of the (pyridazine) elimination product [3]
O=C1O[C@@H]2C=CCCC[C@@H]3[C@H]1[C@@H]32 (stereo in doubt) [Compound 1.17a, (1R,2S,8R,11S,E)-9-Oxatricyclo[6.3.0.0^2,11]undec-6-en-10-one] | 11.5 M⁻¹ s⁻¹ | 1100 M⁻¹ s⁻¹ |  | 
O=C1O[C@@H]2C=CCCC[C@@H]3[C@H]1[C@@H]32 (stereo in doubt) [Compound 1.17b, (1R,2S,8R,11S,E)-9-Oxatricyclo[6.3.0.0^2,11]undec-6-en-10-one] | 8.7 M⁻¹ s⁻¹ |  |  | 
COC(=O)[C@@H]1[C@@H]2C/C=C/[C@H](O)CC[C@@H]21 [Compound 1.6b, Methyl (1R,5R,8S,9S,E)-5-hydroxybicyclo[6.1.0]non-3-ene-9-carboxylate] | 3.3 M⁻¹ s⁻¹ |  |  | 
CN(Cc1ccccc1)C(=O)O[C@H]1/C=C/C[C@@H]2[C@H](CC1)[C@@H]2C(=O)ON1C(=O)CCC1=O [Compound 1.7, 2,5-Dioxopyrrolidin-1-yl (1R,5R,8S,9S,E)-5-((benzyl(methyl)carbamoyl)oxy)bicyclo[6.1.0]non-3-ene-9-carboxylate] | 2.9 M⁻¹ s⁻¹ | 375 M⁻¹ s⁻¹ | within minutes | quantitative formation
COC(=O)[C@H]1[C@H]2CCC/C=C/[C@@H](O)[C@H]21 [Compound 1.16a, Methyl (1R,2R,8S,9S,E)-2-hydroxybicyclo[6.1.0]non-3-ene-9-carboxylate] | 7.0 M⁻¹ s⁻¹ |  |  | 
COC(=O)[C@H]1[C@H]2CCC/C=C/[C@@H](O)[C@H]21 [Compound 1.16b, Methyl (1R,2R,8S,9S,E)-2-hydroxybicyclo[6.1.0]non-3-ene-9-carboxylate] | 0.3 M⁻¹ s⁻¹ |  |  | 
CN(Cc1ccccc1)C(=O)O[C@@H]1/C=C/CCC[C@@H]2[C@H](C(=O)ON3C(=O)CCC3=O)[C@@H]21 [Compound 1.21, 2,5-Dioxopyrrolidin-1-yl (1R,2R,8S,9S,E)-2-((benzyl(methyl)carbamoyl)oxy)bicyclo[6.1.0]non-3-ene-9-carboxylate] | 8.0 M⁻¹ s⁻¹ | 605 M⁻¹ s⁻¹ | within minutes | quantitative formation
